The values that follow come from ChEMBL document CHEMBL2074440, “Molecular cloning, chromosomal localization, and functional characterization of a human liver Na+/bile acid cotransporter” (J Clin Invest, 1994).

What all share (parameters): scale not given: the % may be the effect or the level left
The target in series [1] is T1, Hepatic sodium/bile acid cotransporter (Homo sapiens, UniProt Q14973).
T1 sequence (Q14973 whole entry): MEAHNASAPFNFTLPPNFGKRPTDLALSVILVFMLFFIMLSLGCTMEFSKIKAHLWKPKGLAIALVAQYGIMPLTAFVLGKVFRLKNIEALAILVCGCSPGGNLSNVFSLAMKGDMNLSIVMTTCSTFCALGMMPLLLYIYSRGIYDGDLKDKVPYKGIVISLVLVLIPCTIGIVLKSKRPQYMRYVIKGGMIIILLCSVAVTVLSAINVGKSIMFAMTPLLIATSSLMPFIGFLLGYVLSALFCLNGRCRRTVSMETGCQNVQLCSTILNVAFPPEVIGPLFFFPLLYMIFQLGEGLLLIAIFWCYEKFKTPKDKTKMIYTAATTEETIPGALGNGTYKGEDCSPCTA
The experiment in a line: TP_TRANSPORTER: inhibition of Taurocholate uptake (Taurochorate: 10 uM, Bumetanide: 500 uM) in Xenopus laevis oocytes. Particulars: oocyte. The format is functional, cell-based.

The target in series [2] is T1, Hepatic sodium/bile acid cotransporter. Put plainly: TP_TRANSPORTER: inhibition of Taurocholate uptake (Taurochorate: 10 uM, CDCA: 100 uM) in Xenopus laevis oocytes. The format is functional, cell-based. Particulars: oocyte.
The target is the same in series [3]. The experiment in a line: TP_TRANSPORTER: inhibition of Taurocholate uptake (Taurochorate: 10 uM, GCDCA: 100 uM) in Xenopus laevis oocytes. The format is functional, cell-based, Oocyte. Particulars: probe taurocholate (10 uM), read-out: Activity.
For series [4] the target is unchanged. Put plainly: TP_TRANSPORTER: inhibition of Taurocholate uptake (Taurochorate: 10 uM, GC: 100 uM) in Xenopus laevis oocytes. The format is functional, cell-based. As to conditions: oocyte.
Series [5] has the same target. The experiment in a line: TP_TRANSPORTER: inhibition of Taurocholate uptake (Taurochorate: 10 uM, Lithocholate: 100 uM) in Xenopus laevis oocytes. It is filed as functional, cell-based, Oocyte. Particulars: probe taurocholate (10 uM), read-out: Activity.
For series [6] the target is unchanged. Put plainly: TP_TRANSPORTER: inhibition of Taurocholate uptake (Taurochorate: 10 uM, Glycholithocholate: 100 uM) in Xenopus laevis oocytes. It is filed as functional, cell-based, Oocyte. As to conditions: probe taurocholate (10 uM), read-out: Activity.
Series [7] has the same target. The experiment in a line: TP_TRANSPORTER: inhibition of Taurocholate uptake (Taurochorate: 10 uM, BSP: 100 uM) in Xenopus laevis oocytes. The format is functional, cell-based, Oocyte. Particulars: probe taurocholate (10 uM), read-out: Activity.
Series [8] shares this target. The experiment in a line: TP_TRANSPORTER: inhibition of Taurocholate uptake (Taurochorate: 10 uM, TCDC: 100 uM) in Xenopus laevis oocytes. It is filed as functional, cell-based. Particulars: oocyte.
Series [9] has the same target. The experiment in a line: TP_TRANSPORTER: inhibition of Taurocholate uptake (Taurochorate: 10 uM, TDCA: 100 uM) in Xenopus laevis oocytes. The format is functional, cell-based. As to conditions: oocyte.
Series [10] shares this target. Put plainly: TP_TRANSPORTER: inhibition of Taurocholate uptake (Taurochorate: 10 uM, Taurolithocholate: 100 uM) in Xenopus laevis oocytes. It is filed as functional, cell-based, Oocyte. Particulars: probe taurocholate (10 uM), read-out: Activity.
For series [11] the target is unchanged. The experiment in a line: TP_TRANSPORTER: inhibition of Taurocholate uptake (Taurochorate: 10 uM, TUDC: 100 uM) in Xenopus laevis oocytes. Particulars: oocyte. It is filed as functional, cell-based.
For series [12] the target is unchanged. The experiment in a line: TP_TRANSPORTER: inhibition of Taurocholate uptake (Taurochorate: 10 uM, UDCA: 100 uM) in Xenopus laevis oocytes. The format is functional, cell-based, Oocyte. Particulars: probe taurocholate (10 uM), read-out: Activity.

Molecule `CCCCNc1cc(C(=O)O)cc(S(N)(=O)=O)c1Oc1ccccc1` [BUMETANIDE] registered an Activity in [1] of 71%. With `C[C@H](CCC(=O)O)[C@H]1CC[C@H]2[C@@H]3[C@H](O)C[C@@H]4C[C@H](O)CC[C@]4(C)[C@H]3CC[C@]12C` [CHENODIOL], the Activity in [2] stood at 13%. For `C[C@H](CCC(=O)NCC(=O)O)[C@H]1CC[C@H]2[C@@H]3[C@H](O)C[C@@H]4C[C@H](O)CC[C@]4(C)[C@H]3CC[C@]12C` [GLYCOCHENODEOXYCHOLATE], in series [3], the activity at 100 µM came to 14%. In series [4], `C[C@H](CCC(=O)NCC(=O)O)[C@H]1CC[C@H]2[C@@H]3[C@H](O)C[C@@H]4C[C@H](O)CC[C@]4(C)[C@H]3C[C@H](O)[C@]12C` [GLYCOCHOLIC ACID] yielded an Activity of 44%.

For the molecule `C[C@H](CCC(=O)O)[C@H]1CC[C@H]2[C@@H]3CC[C@@H]4C[C@H](O)CC[C@]4(C)[C@H]3CC[C@]12C` [LITHOCHOLIC ACID], the activity at 100 µM in [5] worked out at 63%.

For `C[C@H](CCC(=O)NCC(=O)O)[C@H]1CC[C@H]2[C@@H]3CC[C@@H]4C[C@H](O)CC[C@]4(C)[C@H]3CC[C@]12C` [LITHOGLYCOCHOLATE], in series [6], the activity at 100 µM worked out at 24%. Consider `O=C1OC(c2ccc(O)c(S(=O)(=O)O)c2)(c2ccc(O)c(S(=O)(=O)O)c2)c2c(Br)c(Br)c(Br)c(Br)c21` [SULFOBROMOPHTHALEIN SODIUM], for which, in [7], the activity at 100 µM was determined as 41%. `C[C@H](CCC(=O)NCCS(=O)(=O)O)[C@H]1CC[C@H]2[C@@H]3[C@H](O)C[C@@H]4C[C@H](O)CC[C@]4(C)[C@H]3CC[C@]12C` [TAUROCHENODEOXYCHOLATE] yielded an Activity in [8] of 19%. `C[C@H](CCC(=O)NCCS(=O)(=O)O)[C@H]1CC[C@H]2[C@@H]3CC[C@@H]4C[C@H](O)CC[C@]4(C)[C@H]3C[C@H](O)[C@]12C` [TAURODEOXYCHOLIC ACID] displayed an Activity in series [9] of 10%. Consider `C[C@H](CCC(=O)NCCS(=O)(=O)O)[C@H]1CC[C@H]2[C@@H]3CC[C@@H]4C[C@H](O)CC[C@]4(C)[C@H]3CC[C@]12C` [TAUROLITHOCHOLIC ACID], for which the activity at 100 µM in series [10] is 33%. `C[C@H](CCC(=O)NCCS(=O)(=O)O)[C@H]1CC[C@H]2[C@@H]3[C@@H](O)C[C@@H]4C[C@H](O)CC[C@]4(C)[C@H]3CC[C@]12C` [TAURURSODIOL] displayed an Activity in series [11] of 8%. Take `C[C@H](CCC(=O)O)[C@H]1CC[C@H]2[C@@H]3[C@@H](O)C[C@@H]4C[C@H](O)CC[C@]4(C)[C@H]3CC[C@]12C` [URSODIOL]: the activity at 100 µM in series [12] worked out at 45%.
